Here are results for four compounds from patent US8748121B2, “GSH adducts and uses thereof” (The Trustees of the University of Pennsylvania, priority 2006, dated 2014).

Like-named read-outs stand apart in the source and are kept apart here.

The subject of data set [1] is EA.hy 926 endothelial cells. Nature of the data set: Analysis of GSH adducts (TOG) in ONE-treated endothelial cells by stable isotope dilution LC-MRM/MS. Conditions: for detection of the adduct in cells treated with ONE: EA.hy 926 cells. Format: cell-based. On the procedure: EA.hy 926 cells were incubated until they reached 70-80% confluence (approximately 2×10^6 cells). DMEM was removed and replaced with FBS-free DMEM prior to treatment with varying concentrations of ONE dissolved in ethanol. The final concentration of ethanol in the culture medium was <0.1%. […] […] […] The cell lysate flow-through and cell media (40 μL of each) were each analyzed in duplicate by LC-MRM/MS using gradient system 4 on the Finnigan Quantum Ultra AM mass spectrometer. The internal standard [^2H3]-ONE-GSH adduct IIb was prepared from 9-[2H3]-ONE and GSH. Quantification of endogenous ONE-GSH adduct IIb was performed from the peak area ratios for the transition m/z 426 [ONE-GSH adduct IIb, protonated molecule (MH+)]→m/z 280 (MH+—CONHCH2CO2H—CONH2) compared to the transition m/z 429 (MH^+, [^2H3]-ONE-GSH adduct IIb internal standard)→m/z 283 (MH+—CONHCH2CO2H—CONH2). Intracellular and extracellular ONE-GSH adduct IIb concentrations were determined by interpolation from a standard curve prepared by adding a fixed amount of [^2H3]-ONE-GSH adduct IIb (10 ng) to increasing amounts of authentic ONE-GSH adduct IIb in the blank lysis buffer or incubation medium (range 0.2 ng/mL to 50 ng/mL). A typical regression line for a standard curve of area ratios compared with ONE-GSH adduct IIb concentrations [ng/mL] in the blank lysis buffer was y) 0.065x +0.0045 (r^2=0.9999).

The subject of data set [2] is EA.hy 926 endothelial cells. Nature of the data set: Analysis of GSH adducts in endothelial cells subjected to oxidative stress (t-BuOOH/FeII). Format: cell-based. The settings on record: 10 μM t-BuOOH/500 μM FeII. The procedure: EA.hy 926 cells were incubated until they reached 70-80% confluence (approximately 2×10^6 cells). DMEM was removed and replaced with FBS-free DMEM prior to treatment with t-BuOOH (10 μM) and Fe^II (500 μM, ferrous sulfate). Cells were collected after 30 min, and intracellular GSH adduct concentrations were quantified by stable isotope dilution LC-MRM/MS as described above. Channels corresponding to the specific MRM transitions of the ONE-GSH adduct IIb and its trideuterated internal standard were monitored as described above. MRM transitions for HNE- and ONO-GSH adducts m/z 464 (MH^+)→m/z 308 (MH^+—C9H16O2) were also monitored. Quantification of diastereomeric HNE-GSH adducts was conducted by determining the ratio of the area of the HNE-GSH adducts signal to the area of [^2H3]-ONE-GSH adduct IIb. Intracellular concentrations of HNE-GSH adducts were determined with reference to a standard curve constructed in lysis buffer using authentic standards of unlabeled HNE-GSH adducts as described above for the ONE-GSH adduct IIb.

Data set [3] deals with glutathione-S-transferase (GST). Conditions: GSH 1 mM, ONE 1 mM. The procedure:
GSH (1 or 4 mM) was incubated with 4-ONE (1 mM or 100 μM) in 100 mM potassium phosphate buffer (200 μL) containing 1 mM EDTA (pH 6.5). Reactions were also conducted in the presence of equine or rat GST (10 or 100 units). Similar reactions were performed with 4 mM GSH and 2-[2 Hi]-ONE, 3-[2H]-ONE, or 2,3-[^2H2]-ONE (1 mM). Reaction mixtures were incubated at 37° C. for 1 h and then filtered through an Amicon Ultra-4 5,000 filter, and a 20 μL aliquot was analyzed by LC-MS using gradient system 1.
TOG and ONE were monitored by UV (224 nm) from the reaction between GSH (1 mM) and ONE (1 mM) in the presence of GST (10 or 100 units) for 24 h.

The conditions of data set [4]: incubated with 1% TFA, 37° C., 24 h.
Procedure: A portion of ONE-GSH adduct IIb was then incubated with 1% TFA at 37° C. for 24 h. The reaction mixture (20 μL) was analyzed by LC-MS using gradient system 1.

In the case of `CCCCCc1c(SCC(NC(=O)CCC(N)C(=O)O)C(=O)NCC(=O)O)ccn1C(CCC(=O)NC(CS)C(=O)NCC(=O)O)C(=O)O` (stereo not drawn) [adduct Ia, 2-amino-4-[2-(1-{1-carboxy-3-[1-(carboxymethyl-carbamoyl)-2-mercapto-ethylcarbamoyl]-propyl}-2-pentyl-1H-pyrrol-3-ylsulfanyl)-1-(carboxymethyl-carbamoyl)-ethylcarbamoyl]-butyric acid], the “detection of the adduct in cells treated with ONE” value in data set [1] is given as “unable to detect”. The “detection of the adduct in cells subjected to oxidative stress” value in data set [2] was “unable to detect”.
As to `CCCCCC(=O)/C=C/C=O` [ONE, 4-oxo-2(E)-nonenal], in data set [1] (EA.hy 926 endothelial cells), the “ONE concentration at which the cells were no longer viable” value was > 20 /<M. In addition, in data set [1] (LC-MRM/MS), the “ONE concentration at which TOG was detected in the extracellular milieu” value is ≥ 1 µM and the “ONE concentration at which intracellular TOG could be quantified” value was ≥ 5 /iM. Also, in data set [3], the “reaction rate with 100 units of GST relative to 10 units” value is reported as 6 times. In addition, in data set [3] (10 units of GST, after 24 h), the “ONE still left in the reaction mixture” value is reported as 6%. In data set [3] (10 units of GST, by 4 h), the ONE consumed is 58%. In data set [3] (100 units of GST, after 4 h), the “consumption of ONE” value worked out at 93%. Further, the ONE remaining result in data set [3] (100 units of GST, after 24 h) is reported as “not detectable”. For the same compound, the ONE consumed in data set [3] (100 units of GST, by 40 min) was found to be 52%.
As for “(2S,7R)-7-[iV-(carboxymethyl)carbamoyl]-5-oxo-12-pentyl-9-thia-1,6-diazabicyclo[8.2.1]trideca-10(13),11-diene-2-carboxylic acid [TOG]”, the “TOG as share of the intracellular total GSH at the start of the incubation (10 nmol)” value in data set [1] (20 fiM ONE for 30 min) stood at 15.4%. The “total TOG” value in data set [1] (20 fiM ONE for 30 min) was 1.54 nmol. Besides, the “intracellular concentration of TOG” value in data set [1] (after the addition of 20 μM ONE (printed 20 μL; 20/<M)) was 46.1 µM. Further, the intracellular TOG, maximum of dose-dependent increase in data set [1] (after the addition of ONE) came out at 46.1 pmol/2×10^6 cells. Moreover, the “concentration of intracellular TOG” value in data set [1] (cells incubated with 5 fiU ONE for 0.5 h) worked out at 2.8 µM. For the same compound, the “incubation time to maximal formation of TOG” value in data set [3] (10 units of GST) is on record as 24 h; in data set [3] (100 units of GST), 4 h. Moreover, in data set [4], the “conversion to dehydrated product (adduct IV)” value is reported as “quantitative conversion”.
In the case of `CCCCCc1c2ccn1C(C(=O)O)CCC(=O)NC(C(=O)NCC(=O)O)CSc1ccn(c1CCCCC)C(C(=O)O)CCC(=O)NC(C(=O)NCC(=O)O)CS2` (stereo not drawn) [adduct III, 7,19-bis-(carboxymethyl-carbamoyl)-5,17-dioxo-25,26-dipentyl-9,21-dithia-1,6,13,18-tetraaza-tricyclo[20.2.1.110.13]hexacosa-10(26),11,22(25),23-tetraene-2,14-dicarboxylic acid], the “detection of the adduct in cells treated with ONE” value in data set [1] is given as “unable to detect”. Also, the “detection of the adduct in cells subjected to oxidative stress” value in data set [2] is recorded as “unable to detect”.
